Among the data in US10774049B2, “PU.1 inhibitors” (Albert Einstein College of Medicine, priority 2016, dated 2020) are IC50 values, retold here.

Assay [1] relates to PU.1 URE−/− AML cell line. The assay is described as follows: Cell viability/growth of PU.1 URE−/− AML cells. It counts as cell-based, murine. The note with it: Mus musculus; read-out: IC50 URE−/−. How it is done: (§1) FIG. 2A-2F. PU.1 inhibition decreases cell growth and increases apoptosis of PU.1^1″ leukemic cells. (A) Chemical structures of heterocyclic diamidines DB1976, DB2115 and DB2313 used in this study. (B) Relative cell viability of URE−/− cells and BAF3 cells after treatment with increasing concentrations of vehicle or small molecules. Cell viability was assessed after 48 h. Data represent means of technical triplicate from one representative experiment; fold change compared to Vehicle is shown. (C) Cell proliferation assay of URE−/− after treatment with DB1976 (n=5), DB2115 (n=3), DB2313 (n=3), of MOLM13 cells (n=3), and THP1 cells (n=3). Cell counting was performed every 24 h during 4 days. Data represent means±SD of technical triplicate from one representative experiment. Forward strand: SEQ ID NO:3, and Reverse strand: SEQ ID NO:4; derived from the λB motif from the murine Ig lambda 2-4 enhancer, a known native PU.1-dependent gene and specific binding site for PU.1. (D) Clonogenic capacities of URE−/− cells after treatment with DB1976 (n=5), DB2115 (n=3) and DB2313 (n=4) in the first plating, and after serial replatings (n=3). Data represent means±SD of technical triplicate from one representative experiment. (E) Apoptotic cells (Annexin-V+Dapi−) fraction in URE−/− cells after 48 h of treatment with DB1976 (n=6), DB2115 (n=6) and DB2313 (n=3). Data represent the means±SD of independent experiments; fold change compared to Vehicle is shown. *P<0.05, **P<0.01, ***P<0.001, ****P<0.0001 (F) Dose dependent inhibitor of PU.1-dependent transactivation.
(§2) To determine if our PU.1 inhibitors have an effect on PU.1^low-induced AML cells, we treated the PU.1 URE^−/− AML cell line with compounds at different concentrations. Treatment with the drugs led to a profound decrease in growth of PU.1 URE^−/− AML cells after 48 h whereas it had only minimal or no effects on control cells with normal PU.1 levels (BaF3), even at very high doses (FIG. 3A). […] Similar to our observations with PU.1-directed shRNAs, treatment with pharmacological PU.1 inhibitors led to a significant 1.6-, 2- and 3.5-fold increase of apoptotic cells with DB1976, DB2115 and DB2313, respectively, in murine PU.1 URE^−/− AML cells (FIG. 3C), and similar effects in human MOLM13 cells.

Assay [2] concerns BaF3 cells. The assay is described as follows: Cell viability of BaF3 control cells. It counts as cell-based, murine. To be noted: Mus musculus, NR = Not Reached. How it is done: as §1, §2

On to `N=C(N)c1ccc2nc(-c3ccc(OCCOCCOc4ccc(-c5nc6ccc(C(=N)N)cc6[nH]5)cc4)cc3)[nH]c2c1` [DB2146], for which the figures for the IC50 in assay [1] and in assay [2] were 5 µM and 68 µM, respectively.
On the same counts, the results for `CN(CCOc1ccc(-c2nc3ccc(C(=N)N)cc3[nH]2)cc1)CCOc1ccc(-c2nc3ccc(C(=N)N)cc3[nH]2)cc1` [DB2150] are 20 µM and 416 µM.
Take `Cn1c(-c2ccc(OCCCOc3ccc(-c4nc5cc(C(=N)N)ccc5n4C)cc3)cc2)nc2cc(C(=N)N)ccc21` [DB2237]: in assay [1], the IC50 came to 4.4 µM.
On the same count and under the same terms, the result for `CC(C)NC(=N)c1ccc2nc(-c3ccc(OCCOCCOc4ccc(-c5nc6ccc(C(=N)NC(C)C)cc6[nH]5)cc4)cc3)[nH]c2c1` [DB2295] reads 10.5 µM.
With `CC(C)NC(=N)c1ccc2nc(-c3ccc(OCc4cccc(COc5ccc(-c6nc7ccc(C(=N)NC(C)C)cc7[nH]6)cc5)n4)cc3)[nH]c2c1` [DB2302], the IC50 in assay [1] is 7.8 µM.
As for `Cn1c(-c2ccc(OCc3cccc(COc4ccc(-c5nc6cc(C(=N)N)ccc6n5C)cc4)n3)cc2)nc2cc(C(=N)N)ccc21` [DB2326], the IC50 in assay [1] stood at 1.9 µM; in assay [2], 48 µM.
Taken in the same sequence, the figures for `N=C(N)c1ccc2nc(-c3ccc(OCC(F)(F)C(F)(F)C(F)(F)COc4ccc(-c5nc6ccc(C(=N)N)cc6[nH]5)cc4)cc3)[nH]c2c1` [DB2355] were 1.7 µM and 49 µM.
Turning to `Cn1c(-c2ccc(-c3ccc(C(=N)N)cc3)s2)nc2cc(-c3ccc(C(=N)N)cc3)ccc21` [DB2457], the IC50 in assay [1] came out at 16.5 µM.
The same measure, in the same setting: the result for `N=C(N)c1ccc2nc(-c3ccc(Oc4ccc(Oc5ccc(-c6nc7ccc(C(=N)N)cc7[nH]6)cc5)cc4)cc3)[nH]c2c1` [DB2483] reads 5.3 µM.
`N=C(N)c1ccc2nc(-c3ccc(OCC(F)(F)C(F)(F)Oc4ccc(-c5nc6ccc(C(=N)N)cc6[nH]5)cc4)cc3)[nH]c2c1` [DB2514]: the IC50 in assay [1] stood at 5.6 µM; in assay [2], 44.5 µM.
